Laboratory results published in patent publication US4968672A, “Adenosine receptor prodrugs” (priority 1987, dated 1990).
≈ marks a conversion by molar mass, not a printed value. Counter-ions that a name gives are not always drawn. Like-named read-outs stand apart in the source and are kept apart here.

Legend:
A1 receptor = molecular target: T1, A1 receptor (Rattus norvegicus, UniProt P25099); assay: inhibition of [3H]PIA binding to rat cerebral cortex membranes
T1 construct: rat cerebral cortex membranes; from tissue; host or cells: rat cerebral cortex membranes
T1 sequence (P25099 1-326): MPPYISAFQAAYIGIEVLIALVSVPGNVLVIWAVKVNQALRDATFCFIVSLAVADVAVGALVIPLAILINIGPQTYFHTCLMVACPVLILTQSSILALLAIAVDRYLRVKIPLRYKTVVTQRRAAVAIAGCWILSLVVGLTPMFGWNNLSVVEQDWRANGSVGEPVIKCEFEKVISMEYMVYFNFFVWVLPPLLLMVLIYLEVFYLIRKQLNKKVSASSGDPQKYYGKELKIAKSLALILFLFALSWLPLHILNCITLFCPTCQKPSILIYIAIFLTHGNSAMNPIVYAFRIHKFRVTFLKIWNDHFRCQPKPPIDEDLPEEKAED
Protocol: (§1) Measurements of the potencies of the xanthines as antagonists of NECA-induced stimulation of adenylate cyclase activity in human platetlet membranes and as inhibitors of [^3 H]PIA binding to rat cerebral cortex membranes were carried out as reported previously.

A2 receptor = molecular target: T2, A2 receptor (Homo sapiens, UniProt P29274); assay: antagonism of NECA-induced stimulation of adenylate cyclase activity in human platelet membranes; assay type: biochemical; details: for A2 potency / affinity: human platelets
T2 construct: human platetlet membranes; from tissue; host or cells: human platelet membranes
Protocol: as §1

A2 adenosine receptors = assay: reversal of 2-chloroadenosine-stimulated cyclic AMP production in guinea pig brain slices; assay type: cell-based; details: read-out: Ki for reversal of 2-chloroadenosine-stimulated cyclic AMP production; guinea pig brain slices
From the text: […]. As modifications of these xanthines designed to increases A2 -potency we have explored changing the size of the 1,3-dialkyl groups and incorporating distal amino groups in the functionalized 8-phenyl moiety.

[1] = octanol/water partition coefficient; assay type: physicochemical; details: for logD: n-octanol / sodium phosphate pH 7.2, 0.1 M, read-out: octanol/water partition coefficient (log p)
Protocol: Partition coefficients were determined by addition of a dimethylsulfoxide solution (5 uL) of the xanthine to an equivolume mixture (2 mL) of n-octanol and aqueous sodium phosphate, pH 7.2, 0.1 M. After thorough mixing of phases and separation, the ratio of concentrations was determined by comparing absorption at 310 nm of aliquots diluted in methanol (the aqueous phase was filtered). The ±s.e.m. for six determinations corresponded to 0.01 log p units.

solubility = assay type: physicochemical
acute renal failure = details: renal artery occlusion or glycerol injection; cited from earlier work
A1 adenosine receptors = molecular target: T3, A1 adenosine receptors (Rattus norvegicus, UniProt P25099); assay: membrane binding assay at A1 adenosine receptors (Tables 1 and 2); details: Table 2; read-out: Ki (A1(nM))
T3 construct: rat cerebral cortex membranes; from tissue; host or cells: rat cerebral cortex membranes
T3 sequence (P25099 1-326): T1 sequence (P25099 1-326)
From the text: Table 2 lists prodrugs (including Routes A and B of FIG. 2) and chemical intermediates, based on xanthine and adenosine functionalized congener and the method of synthesis. The potency of each compound at A1 adenosine receptors is indicated by the Ki (inverse relationship to potency) in a membrane binding assay.

[2] = oral absorption and cleavage of prodrug
[3] = tested on: blood brain barrier / central nervous system; assay: brain entry / central side effects
[4] = tested on: blood brain barrier / central nervous system; details: background; cited from earlier work
[5] = brain and plasma level after I.V. dosing in rats; assay type: in vivo, rat; details: 1 mg/kg I.V.
From the text: […]. […] The above lipid derivatives will enter the brain and should be able to act as central stimulants. When given orally, the lipid derivatives enter the lymphatic system and may be directed to the brain. Compound 43 (as its reduced dihydropyridine form) is designed to enter the brain by another mechanism.

[6] = tested on: cell surface adenosine receptors; details: background; cited from earlier work
[7] = molecular target: T4, CHA-induced renal vasoconstriction (A1 subclass of receptors) (Rattus norvegicus, UniProt P25099); assay: CHA-induced renal vasoconstriction in isolated perfused rat kidneys
T4 construct: isolated rat kidneys; from tissue; host or cells: isolated perfused rat kidney
T4 sequence (P25099 1-326): T1 sequence (P25099 1-326)
Protocol: After a 45 minute period of equilibration at a pressure of 100 mm Hg, flow was maintained at the rate obtained during the final 15 minutes of equilibration and pressure was allowed to vary. Changes in pressure were measured as the difference in pressure from baseline in response to CHA, in the presence or absence of antagonist.

[8] = tested on: adenosine receptors (glomerular filtration rate); assay: glomerular filtration rate after N6-cyclohexyladenosine in rats; assay type: in vivo, rat; details: CHA administered to rats
Protocol: N^6 -Cyclohexyladenosine was administered to rats to lower the glomerular filtration rate to a level 30-40% of normal.

[9] = tested on: adenosine receptors (kidney and non-renal vasculature); assay: blood pressure and sodium excretion in CHA-treated rats (Table 4); assay type: in vivo, rat; details: CHA infusion 10 nmol/min/kg; antagonists 0.2 umoles/kg bolus then 2 nmol/kg/min
Protocol: ^1 CHA = N^6 -cyclohexyladenosine administered as a constant
infusion of 10 nanmoles/min./kg. Total dose administered over 45 min. was
approximately […] (= relatively high dose).
^2 Xanthine antagonists were administered in a bolus injection of 0.2
umoles/kg followed by an infusion of 2 nanamoles per kg/min.

[10] = [3H]PIA, rat cerebral cortex membranes, means from two experiments, read-out: A1 receptor Ki
[11] = antagonism of NECA-stimulated adenylate cyclase, human platelet membranes, means with 95% confidence limits from 3 experiments, read-out: A2 receptor KB

T2 sequence (P29274 whole entry): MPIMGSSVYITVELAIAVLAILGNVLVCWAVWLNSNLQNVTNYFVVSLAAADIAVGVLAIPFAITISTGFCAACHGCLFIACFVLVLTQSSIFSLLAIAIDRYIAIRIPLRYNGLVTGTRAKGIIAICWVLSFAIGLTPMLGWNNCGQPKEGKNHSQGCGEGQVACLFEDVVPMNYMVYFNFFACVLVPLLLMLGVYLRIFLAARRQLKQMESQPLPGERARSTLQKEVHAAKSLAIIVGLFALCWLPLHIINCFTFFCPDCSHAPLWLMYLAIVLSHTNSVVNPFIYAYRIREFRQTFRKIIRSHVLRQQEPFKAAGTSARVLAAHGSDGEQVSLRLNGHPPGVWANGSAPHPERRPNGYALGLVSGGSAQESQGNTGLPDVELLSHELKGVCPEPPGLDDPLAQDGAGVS

## CCCn1c(=O)c2[nH]c(-c3ccc(OCC(=O)OCC)cc3)nc2n(CCC)c1=O [Compound 53c, 8-[4-[(carboxymethyl)oxy]phenyl]-1,3-dipropylxanthine ethyl ester]
A1 receptor; [10]
  Ki: 13 nM
A2 receptor; [11]
  Kb: 135 nM
A2 receptor
  A2 potency / affinity: increased potency markedly at A2 receptors
A2 adenosine receptors
  Ki: 30 nM

## CCCn1c(=O)c2nc(-c3ccc(OCC(=O)NCCN)cc3O)[nH]c2n(CCC)c1=O [2-hydroxyl analog of XAC]
A1 receptor; read-out: Ki at central A1-receptors
  Ki: 2.3 nM
A2 receptor; read-out: Kb for the reversal of NECA-stimulated adenylate cyclase activity in human platelets
  Kb: 140 nM

## CCn1c(=O)c2[nH]c(-c3ccc(OCC(=O)NCCN)cc3)nc2n(CC)c1=O [Compound 56b, 8-[4-[[[[(2-Aminoethyl)amino]carbonyl]methyl]oxy]phenyl]-1,3-diethylxanthine]
A1 receptor
  potency of XAC and 56b compared (A1-receptors): differed by an order of magnitude at A1-receptors
A1 receptor; A1 vs A2
  receptor subtype selectivity: nonselective for receptor subtypes
A1 receptor; [10]
  Ki: 12 nM
A2 receptor
  potency of XAC and 56b compared (A2 receptors): nearly identical at A2 receptors
A2 receptor; [11]
  Kb: 21 nM
[1]
  logD: -0.06
solubility; pH 7.2, 0.01 M phosphate, read-out: maximum aqueous solubility
  solubility: 500 µM (≈ 200 µg/mL)

## Cn1c(=O)c2[nH]c(-c3ccccc3)nc2n(C)c1=O [8-phenyltheophylline]
Acute renal failure
  effect on kidney failure: beneficial effects in preventing or lessening the severity of resultant kidney failure, and in increasing survival

## CCCn1c(=O)c2[nH]c(-c3ccc(OCC(=O)NCCNC(=O)CC[C@H](NC(C)=O)C(=O)OCc4ccccc4)cc3)nc2n(CCC)c1=O [Compound 16, N-Acetyl-glutamic acid (gamma-XAC) alpha benzyl ester]
A1 adenosine receptors
  Ki: 9.8 nM
solubility; with warming
  solubility in ethanol: readily dissolved in ethanol, with warming
[2]
  cleavage to the active drug: benzyl ester is readily cleaved by estereases to liberate compound 17
[2]; oral
  absorption by the gut: sufficiently non-polar to be absorbed effectively by the gut

## CCn1c(=O)c2[nH]c(-c3ccc(OCC(=O)OC(C)C)cc3)nc2n(CC)c1=O [Compound 54b, 8-[4-[(Carboxymethyl)oxy]phenyl]-1,3-diethylxanthine 2-Propyl Ester]
A1 receptor; [10]
  Ki: 90 nM
A2 receptor; [11]
  Kb: 73 nM

## Cn1c(=O)c2[nH]c(-c3ccc(OCC(=O)Nc4ccc(CC(=O)NCCN)cc4)cc3)nc2n(C)c1=O [Compound 59a]
A1 receptor; [10]
  Ki: 42 nM
A2 receptor; [11]
  Kb: 63 nM
[1]
  logD: -0.05

## CCn1c(=O)c2[nH]c(-c3ccc(OCC(=O)N(C)CCN(C)C)cc3)nc2n(CC)c1=O [tri-methyl substition of 56b]
A1 receptor; read-out: Ki (A1-potency)
  Ki: 1.5 nM

## CCn1c(=O)c2[nH]c(-c3ccc(OCC(=O)NCCNC(=O)[C@H](N)CCCCN)cc3)nc2n(CC)c1=O [Compound 61b, 8-[4-[(Carboxymethyl)oxy]phenyl]-1,3-diethylxanthine 2-(D-Lysylamino)ethylamide Dihydrochloride]
A2 receptor; [11]
  Kb: 23 nM
[1]
  logD: -1.2

## CCn1c(=O)c2[nH]c(-c3ccc(OCC(=O)Nc4ccc(CC(=O)OC)cc4)cc3)nc2n(CC)c1=O [Compound 58b, 8-[4-[[[[(4-Carboxymethyl)anilino]carbonyl]methyl]oxy]-phenyl]-1,3-diethylxanthine Methyl Ester]
A1 receptor; [10]
  Ki: 58 nM
A2 receptor; [11]
  Kb: 210 nM

## CC(=O)N[C@@H](CCC(=O)NCCNC(=O)Cc1ccc(NC(=O)Cc2ccc(Nc3ncnc4c3ncn4[C@@H]3O[C@H](CO)[C@@H](O)[C@H]3O)cc2)cc1)C(=O)O [Compound 35]
A1 adenosine receptors
  Ki: > 10 nM
[3]
  central side effects: absent
  entry into the brain / passage across the blood brain barrier: excluded from passage across the blood brain barrier

## Cn1c(=O)c2c(ncn2C)n(C)c1=O [caffeine]
[4]
  passage through the blood-brain barrier: freely pass through the blood-brain barrier
  side effects with use: insomnia, palpitations, tremor, and headache

## CCCn1c(=O)c2[nH]c(-c3ccc(OCC(=O)O)cc3)nc2n(CCC)c1=O [Compound 30]
A1 receptor; [10]
  Ki: 50 nM
A2 adenosine receptors
  Ki: 34 nM
[5]
  level in the brain: undetectable in the brain
[5]; rat, plasma, iv, read-out: plasma conc. after 10 min
  concentration at 10 min: 2650 ± 450 ng/mL

## Cc1ccc(NC(=O)COc2ccc(-c3nc4c([nH]3)c(=O)n(C)c(=O)n4C)cc2)cc1 [Compound 57a]
A1 receptor; [10]
  Ki: 27 nM

## CCOC(=O)COc1ccc(-c2nc3c([nH]2)c(=O)n(CC)c(=O)n3CC)cc1 [Compound 53b]
A1 receptor; [10]
  Ki: 140 nM
A2 receptor; [11]
  Kb: 170 nM

## CCn1c(=O)c2[nH]c(-c3ccc(OCC(=O)Nc4ccc(CC(=O)NCCN)cc4)cc3)nc2n(CC)c1=O [Compound 59b]
A1 receptor; [10]
  Ki: 25 nM
A2 receptor; [11]
  Kb: 28 nM

## Cn1c(=O)c2[nH]cnc2n(C)c1=O [theophylline]
Acute renal failure
  effect on kidney failure: beneficial effects in preventing or lessening the severity of resultant kidney failure, and in increasing survival
[6]
  natriuresis and potassium: increased natriuresis and spares potassium

## OC[C@H]1O[C@@H](n2cnc3c(NC4CCCCC4)ncnc32)[C@H](O)[C@@H]1O [CHA, N^6 -cyclohexyladenosine, reference compound]
[7]; 3×10^-8 M CHA
  pressure change in response to CHA: 21±5 mm Hg
[7]; 10^-8 M CHA
  pressure change in response to CHA: 5±2 mm Hg
[8]
  glomerular filtration rate lowered to % of normal: 30-40%
[9]
  Sodium excretion: 0.86 ± 0.04 uEq/min/kg
  b.p.: 113 + 2 mmHg

## Cn1c(=O)c2[nH]c(-c3ccc(OCC(=O)NCCN)cc3)nc2n(C)c1=O [Compound 56a]
A1 receptor; [10]
  Ki: 13 nM
A2 receptor; [11]
  Kb: 40 nM
[1]; pH 7.2
  octanol/water partition coefficient (log p): 0.63

## CCCCCCCCCCCCCC(=O)NCCNC(=O)COc1ccc(-c2nc3c([nH]2)c(=O)n(CCC)c(=O)n3CCC)cc1 [Compound 33, Myristoyl-XAC]
A1 adenosine receptors
  Ki: 98 ± 16 nM
[2]
  cleavage to the active drug: readily cleaved at the site of action to generate XAC

## CCCn1c(=O)c2[nH]c(-c3ccccc3)nc2n(CCC)c1=O [Compound 51c, 1,3-dipropyl-8-phenylxanthine]
A1 receptor; [10]
  Ki: 13 nM

## CCn1c(=O)c2[nH]c(-c3ccc(OCC(=O)NCCNC(=O)[C@@H](CCCCNC(=O)OCc4ccccc4)NC(=O)OC(C)(C)C)cc3)nc2n(CC)c1=O [Compound 60b]
A1 receptor; [10]
  Ki: 180 nM
A2 receptor; [11]
  Kb: 230 nM

## CCNC(=O)COc1ccc(-c2nc3c([nH]2)c(=O)n(CC)c(=O)n3CC)cc1 [Compound 55b]
A1 receptor; [10]
  Ki: 57 nM
A2 receptor; [11]
  Kb: 48 nM

## CCn1c(=O)c2[nH]c(-c3ccc(OCC(=O)Nc4ccc(C)cc4)cc3)nc2n(CC)c1=O [Compound 57b]
A1 receptor; [10]
  Ki: 9.3 nM
A2 receptor; [11]
  Kb: 100 nM
A2 receptor
  A2 potency / affinity: not as potent at A2 -receptors as expected
